In patent US8680052B1, “Methods of treating, reducing the incidence of, and/or preventing ischemic events” (The Medicines Company, priority 2013, dated 2014):
Like-named read-outs stand apart in the source and are kept apart here.

System: patients with acute coronary syndromes undergoing PCI
Details: for IDR / MI / Mortality/MI/IDR / Mortality/Q-wave MI/IDR / Mortality/Q-wave MI/Stent thrombosis / Q-wave MI / Stent thrombosis / All-cause mortality: 30 days; for Angiographic complications (site reported): Abrupt vessel closure / Angiographic complications (site reported): Acute stent thrombosis / Angiographic complications (site reported): Need for urgent CABG / Angiographic complications (site reported): New thrombus or suspected thrombus / Angiographic complications (site reported): Threatened abrupt closure / Angiographic complications (site reported): Unsuccessful procedure: index PCI
Protocol: Patients were eligible for enrollment if they had stable angina, unstable angina, or non-ST-segment elevation (NSTE) MI with obstructive coronary artery disease and were scheduled to undergo PCI.
The infusion began within 30 minutes prior to PCI and continued for at least 2 hours or until the conclusion of the index procedure, whichever was longer. At the treating physician's discretion, the infusion could be continued for 4 hours.
All patients received aspirin 75-325 mg per local site standards. Adjunctive anticoagulants (unfractionated heparin, low molecular weight heparin, bivalirudin, or fondaparinux) and the procedural use of glycoprotein IIb/IIIa inhibitors were determined by the treating physician.
The primary efficacy endpoint was the 48-hour composite of all-cause mortality, MI, or ischemia-driven revascularization. Prespecified secondary efficacy endpoints included the composite of mortality or MI at 48 hours and 30 days; the composite of mortality, MI, or ischemia-driven revascularization at 30 days; the components of the composite endpoints at 48 hours and 30 days; stroke at 48 hours; abrupt closure, threatened abrupt closure, need for urgent coronary artery bypass grafting, or unsuccessful procedure during the index PCI; acute (24 hours) and 48 hours stent thrombosis; and all-cause mortality at 6 months and 1 year.
Rates of MI and ischemia-driven revascularization up to 30 days following the index procedure were assessed. Ischemia-driven revascularization was defined as symptoms of myocardial ischemia leading to urgent (within 24 hours of the last episode of ischemia) revascularization, which must have occurred after the index procedure concluded (i.e., guidewire removal). New electrocardiographic changes, acute pulmonary edema, ventricular arrhythmias, or hemodynamic instability could also constitute evidence of ischemia.
MI was defined by a new Q wave (duration >0.03 seconds) in two contiguous electrocardiographic leads or elevations in creatine kinase (CK) and CK-MB, including a rise of CK-MB≧3 times the local upper limit or normal and, when biomarkers were elevated prior to PCI, an additional 50% above baseline. One baseline troponin measurement was required for patients undergoing urgent PCI. Measurements of CK-MB were obtained at 2, 10, 17, and 24 hours post-PCI.
The primary efficacy analysis was to be determined in the modified intent-to-treat (mITT) population, defined as all randomized patients (excluding STEMI cohort) who received at least one dose of study drug and underwent the index PCI. The safety population consisted of all randomized patients who received any study drug. Patients in the safety analyses were assigned to a treatment arm based on treatment received, not as randomized.

With COC(=O)[C@H](c1ccccc1Cl)N1CCc2sccc2C1 [Clopidogrel, clopidogrel, reference compound] the IDR (ITT With STEMI) was 15 (3.0) no. (%), the MI (ITT With STEMI) was 17 (3.4) no. (%) and the Mortality/MI/IDR (ITT With STEMI) was 41 (8.2) no. (%). For the same compound, the “Mortality/Q-wave MI/IDR” value (ITT With STEMI) was 31 (6.2) no. (%), the “Mortality/Q-wave MI/Stent thrombosis” value (ITT With STEMI) was 26 (5.2) no. (%) and the “Q-wave MI” value (ITT With STEMI) was 0 (0.0) no. (%). For the same compound, the Stent thrombosis (ITT With STEMI) was 10 (2.0) no. (%), the All-cause mortality (ITT Without STEMI) was 31 (0.8) no. (%) and the IDR (ITT Without STEMI) was 54 (1.4) no. (%). For the same compound, the MI (ITT Without STEMI) was 276 (7.1) no. (%), the Mortality/MI/IDR (ITT Without STEMI) was 332 (8.6) no. (%) and the “Mortality/Q-wave MI/IDR” value (ITT Without STEMI) was 88 (2.3) no. (%). The “Mortality/Q-wave MI/Stent thrombosis” value (ITT Without STEMI) was 56 (1.4) no. (%), the “Q-wave MI” value (ITT Without STEMI) was 15 (0.4) no. (%) and the Stent thrombosis (ITT Without STEMI) was 20 (0.5) no. (%). The All-cause mortality (MITT) was 38 (0.9) no. (%), the IDR (MITT) was 66 (1.5) no. (%) and the MI (MITT) was 292 (6.8) no. (%). The Mortality/MI/IDR (MITT) was 360 (8.4) no. (%), the “Mortality/Q-wave MI/IDR” value (MITT) was 107 (2.5) no. (%) and the “Mortality/Q-wave MI/Stent thrombosis” value (MITT) was 73 (1.7) no. (%). The “Q-wave MI” value (MITT) was 15 (0.4) no. (%), the Stent thrombosis (MITT) was 30 (0.7) no. (%) and the All-cause mortality (MITT With STEMI) was 11 (2.5) no. (%). The IDR (MITT With STEMI) was 14 (3.2) no. (%), the MI (MITT With STEMI) was 16 (3.6) no. (%) and the Mortality/MI/IDR (MITT With STEMI) was 34 (7.7) no. (%). For the same compound, the “Mortality/Q-wave MI/IDR” value (MITT With STEMI) was 25 (5.6) no. (%), the “Mortality/Q-wave MI/Stent thrombosis” value (MITT With STEMI) was 21 (4.7) no. (%) and the “Q-wave MI” value (MITT With STEMI) was 0 (0.0) no. (%). For the same compound, the Stent thrombosis (MITT With STEMI) was 10 (2.3) no. (%), the All-cause mortality (MITT Without STEMI) was 27 (0.7) no. (%) and the IDR (MITT Without STEMI) was 52 (1.4) no. (%). For the same compound, the MI (MITT Without STEMI) was 276 (7.2) no. (%), the Mortality/MI/IDR (MITT Without STEMI) was 326 (8.5) no. (%) and the “Mortality/Q-wave MI/IDR” value (MITT Without STEMI) was 82 (2.1) no. (%). The “Mortality/Q-wave MI/Stent thrombosis” value (MITT Without STEMI) was 52 (1.4) no. (%), the “Q-wave MI” value (MITT Without STEMI) was 15 (0.4) no. (%) and the Stent thrombosis (MITT Without STEMI) was 20 (0.5) no. (%). For the same compound, the All-cause mortality (Safety population) was 41 (0.9) no. (%), the IDR (Safety population) was 67 (1.6) no. (%) and the MI (Safety population) was 293 (6.8) no. (%). The Mortality/MI/IDR (Safety population) was 365 (8.5) no. (%), the “Mortality/Q-wave MI/IDR” value (Safety population) was 111 (2.6) no. (%) and the “Mortality/Q-wave MI/Stent thrombosis” value (Safety population) was 76 (1.8) no. (%). For the same compound, the “Q-wave MI” value (Safety population) was 15 (0.3) no. (%), the Stent thrombosis (Safety population) was 30 (0.7) no. (%) and the “Angiographic complications (site reported): Abrupt vessel closure” value (ITT) was 22 (0.5). For the same compound, the “Angiographic complications (site reported): Acute stent thrombosis” value (ITT) was 5 (0.1), the “Angiographic complications (site reported): Need for urgent CABG” value (“Angiographic complications … for urgent CABG” below) (ITT) was 7 (0.2) and the “Angiographic complications (site reported): New thrombus or suspected thrombus” value (ITT) was 23 (0.5). The “Angiographic complications (site reported): Threatened abrupt closure” value (ITT) was 12 (0.3), the “Angiographic complications (site reported): Unsuccessful procedure” value (ITT) was 103 (2.4) and the “Angiographic complications (site reported): Abrupt vessel closure” value (ITT With STEMI) was 3 (0.7). The “Angiographic complications (site reported): Acute stent thrombosis” value (ITT With STEMI) was 0 (0.0), the “Angiographic complications … for urgent CABG” value (ITT With STEMI) was 0 (0.0) and the “Angiographic complications (site reported): New thrombus or suspected thrombus” value (ITT With STEMI) was 7 (1.5). The “Angiographic complications (site reported): Threatened abrupt closure” value (ITT With STEMI) was 2 (0.4), the “Angiographic complications (site reported): Unsuccessful procedure” value (ITT With STEMI) was 11 (2.4) and the “Angiographic complications (site reported): Abrupt vessel closure” value (ITT Without STEMI) was 19 (0.5). The “Angiographic complications (site reported): Acute stent thrombosis” value (ITT Without STEMI) was 5 (0.1), the “Angiographic complications … for urgent CABG” value (ITT Without STEMI) was 7 (0.2) and the “Angiographic complications (site reported): New thrombus or suspected thrombus” value (ITT Without STEMI) was 16 (0.4). The “Angiographic complications (site reported): Threatened abrupt closure” value (ITT Without STEMI) was 10 (0.3), the “Angiographic complications (site reported): Unsuccessful procedure” value (ITT Without STEMI) was 92 (2.4) and the “Angiographic complications (site reported): Abrupt vessel closure” value (MITT) was 22 (0.5). The “Angiographic complications (site reported): Acute stent thrombosis” value (MITT) was 5 (0.1), the “Angiographic complications … for urgent CABG” value (MITT) was 6 (0.1) and the “Angiographic complications (site reported): New thrombus or suspected thrombus” value (MITT) was 22 (0.5). For the same compound, the “Angiographic complications (site reported): Threatened abrupt closure” value (MITT) was 12 (0.3), the “Angiographic complications (site reported): Unsuccessful procedure” value (MITT) was 103 (2.4) and the “Angiographic complications (site reported): Abrupt vessel closure” value (MITT NSTEMI) was 19 (0.5). For the same compound, the “Angiographic complications (site reported): Acute stent thrombosis” value (MITT NSTEMI) was 5 (0.1), the “Angiographic complications … for urgent CABG” value (MITT NSTEMI) was 6 (0.2) and the “Angiographic complications (site reported): New thrombus or suspected thrombus” value (MITT NSTEMI) was 16 (0.4). The “Angiographic complications (site reported): Threatened abrupt closure” value (MITT NSTEMI) was 10 (0.3), the “Angiographic complications (site reported): Unsuccessful procedure” value (MITT NSTEMI) was 92 (2.4) and the “Angiographic complications (site reported): Abrupt vessel closure” value (Safety population) was 22 (0.5). For the same compound, the “Angiographic complications (site reported): Acute stent thrombosis” value (Safety population) was 5 (0.1), the “Angiographic complications … for urgent CABG” value (Safety population) was 6 (0.1) and the “Angiographic complications (site reported): New thrombus or suspected thrombus” value (Safety population) was 22 (0.5). The “Angiographic complications (site reported): Threatened abrupt closure” value (Safety population) was 12 (0.3) and the “Angiographic complications (site reported): Unsuccessful procedure” value (Safety population) was 103 (2.4).
